# Assay results from patent publication US5804576A, “Derivatives of 5-androsten-17-ones and 5-androstan-17-ones” (Research Corporation Technologies, Inc., priority 1986, dated 1998).
# Several values for one entry are separate records, joined by “and”; a condition that tells them apart may be missing. Equal values may be shown once. Entries after “also recorded” stand apart in the source; their conditions may differ. Read-outs that look alike come from different tables or passages of the source.
# Assays:
# [1] = target: T1, purified bovine adrenal G6PDH (Bos taurus, UniProt F1MMK2); assay: Inhibition of purified bovine adrenal G6PDH; type: biochemical; conditions: for inhibition at 0.1 µM: Conc. 0.1 μm; for inhibition at 0.1 µM / inhibition at 1 µM / inhibition at 10 µM: read-out: Percent Inhibition (G6PDH)
# T1 construct: full-length, wild type, no tag
# T1 sequence (F1MMK2 31-70): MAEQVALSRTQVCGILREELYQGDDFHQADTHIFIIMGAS
# T1 sequence (F1MMK2 101-575): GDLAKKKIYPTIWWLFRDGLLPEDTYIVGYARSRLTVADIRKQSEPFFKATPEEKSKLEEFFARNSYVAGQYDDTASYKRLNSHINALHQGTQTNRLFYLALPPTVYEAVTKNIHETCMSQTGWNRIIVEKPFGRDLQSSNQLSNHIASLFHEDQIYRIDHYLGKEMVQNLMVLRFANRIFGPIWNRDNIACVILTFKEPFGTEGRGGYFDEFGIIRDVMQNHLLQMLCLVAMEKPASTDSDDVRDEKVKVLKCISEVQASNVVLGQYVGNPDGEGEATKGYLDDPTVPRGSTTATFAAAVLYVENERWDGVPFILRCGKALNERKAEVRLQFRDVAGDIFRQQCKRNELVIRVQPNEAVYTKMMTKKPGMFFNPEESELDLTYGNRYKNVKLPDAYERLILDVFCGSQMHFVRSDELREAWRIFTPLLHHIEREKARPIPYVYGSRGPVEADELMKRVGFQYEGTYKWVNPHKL
# Procedure, shortened: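 Inhibition of purified bovine adrenal G6PDH enzyme activity, run by the published Oertel and Rebelein (1969) procedure.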
# [2] = Anti-obesity test (body weight, food consumption); type: in vivo, mouse (male A/J); conditions: for mean weekly weight / mean weekly weight ± S.D.: n = 5; for mean weekly weight ± S.D.: 0.36% of diet; for weekly weight (Table 13): 0.54% in food
# Procedure, shortened: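 Male A/J mice, 5 weeks old on arrival, housed 5 per cage at 24 °C on a 12 h light/dark cycle, were given steroid in chow from one week after arrival; dietary concentrations were varied, or 0.54% or 0.36%. Body weight and food consumption (food added minus remaining) were recorded weekly.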
# [3] = tested on: C57BL/KsJ-db/db mice; assay: Anti-hyperglycemic activity (blood glucose); type: in vivo, mouse (C57BL/KsJ-db/db); conditions: for blood glucose lowering compared with DHEA (in words): compound 16 0.2% vs DHEA 0.4% of diet
# Experimental: C57BL/KsJ-db/db 8 week old female mice were obtained and housed in polycarbonate cages in animal quarters maintained at 24° C. with 12 h of light and 12 h of darkness each day.
# Mice were placed on a control chow or a chow diet containing either 0.4% DHEA or 0.2% of compound 16.
# For determination of blood glucose levels, mice were bled from the orbital sinus using a heparinized capillary tube. 0.2 ml of blood was added to 1.8 ml of water to hemolyze the blood and glucose concentration was determined using the glucose oxidase assay.
# [4] = tested on: rat uterus; assay: Uterotrophic test for estrogenic activity, oral; type: in vivo; conditions: for Mean Uterine Weight: 3 days, n = 6; for estrogenic activity (in words): rat uterotrophic test
# Description: Uterotrophic Test for Estrogenic Activity. Compound 16 vs. DHEA and Estradiol-benzoate. Compounds Given by Oral Administration.
# Twenty-two day old rats were obtained from Charles River Laboratories. Animals were used at 29 days of age. Test steroids were suspended by homogenization in sesame oil. Rats were orally intubated at 1-2 P.M. for 3 days with a test steroid in sesame oil or with sesame oil alone (control). On the 4th day the animals were killed and the uteri were removed and weighed.
# [5] = tested on: rat uterus; assay: Estrogenic and anti-estrogenic activity (uterine weight, s.c., CD rats); type: in vivo, rat (female CD); conditions: for Mean Uterine Weight ± S.D.: 3 days, DHEA vs 16 experiment; for estrogenic / anti-estrogenic effect, uterine weight (in words): s.c., 60 mg/kg or higher, female CD rats
# Experimental: Female CD rats, 26-27 days old, were used. Rats were injected subcutaneously for 3 days with either DHEA or 16 in propylene glycol. Control rats received propylene glycol alone. The rats were killed on the 4th day and the uteri were removed and weighed.
# Female CD rats, 26-27 days old, were injected subcutaneously for 3 days with one of the compounds of the present invention at 60 mg/kg in propylene glycol. Controls received propylene glycol alone. On the 4th day the rats were killed and the uteri were dissected out and weighed.
# [6] = tested on: seminal vesicles plus prostate glands; assay: Androgenic and anti-androgenic activity (seminal vesicle plus prostate weight); type: in vivo, mouse (male A/J); conditions: for Mean Seminal Vesicle plus Prostate Weight ± S.D.: 4 weeks; for androgenic / anti-androgenic effect, seminal vesicle plus prostate weight (in words): diet, male A/J mice
# Experimental: Male A/J mice (5 weeks old) were obtained from the Jackson Laboratory and were housed in polycarbonate cages (5 mice/cage) in animal quarters maintained at 24°±1° C. with 12 hours of light and 12 hours of darkness each day. One week after arrival, mice were placed on a chow diet containing either 0.18% or 0.09% 16 or without steroid. Mice were weighed weekly. After 4 weeks, the mice were killed, and the seminal vesicles plus prostate glands were dissected out and weighed.
# (a) Male A/J mice (5 weeks old) were obtained from the Jackson Laboratory and were housed in polycarbonate cages (5 mice/cage) in animal quarters maintained at 24°[…] C. with 12 hours of light and 12 hours of darkness each day. One week after arrival, the mice were placed on a chow diet containing one of the test compounds of the present invention at 0.36%. After 4 weeks of treatment, the above mice were killed, and the seminal vesicles and prostate glands were dissected out and weighed.
smiles,measurement,setting,value
"C[C@H]1CC[C@@]2(C)C(=CC[C@@H]3[C@@H]2CC[C@]2(C)C(=O)CC[C@@H]32)C1 [Compound 16, 3β-methyl-5-androsten-17-one]",inhibition at 0.1 µM,[1],25%
same,inhibition at 1 µM,[1]; Conc. 1 μm,40%
same,inhibition at 10 µM,[1]; Conc. 10 μm,53%
same,Anti-obesity Activity relative to DHEA,[2],more than 2 X
same,mean weekly weight,"[2]; 0.18% of diet, week 0",22.6 ± 2.7 grams
same,mean weekly weight,"[2]; 0.18% of diet, week 1",19.8 ± 2.3 grams
same,mean weekly weight,"[2]; 0.18% of diet, week 2",19.4 ± 2.1 grams
same,mean weekly weight,"[2]; 0.18% of diet, week 3",19.4 ± 2.1 grams
same,mean weekly weight,"[2]; 0.18% of diet, week 4",19.6 ± 2.2 grams
same,mean weekly weight,"[2]; 0.35% of diet, week 0",22.0 ± 2.5 grams
same,mean weekly weight,"[2]; 0.35% of diet, week 1",16.8 ± 1.6 grams
same,mean weekly weight,"[2]; 0.35% of diet, week 2",18.2 ± 0.8 grams
same,mean weekly weight,"[2]; 0.35% of diet, week 3",17.2 ± 1.7 grams
same,mean weekly weight,"[2]; 0.35% of diet, week 4",17.0 ± 1.2 grams
same,mean weekly weight ± S.D.,[2]; week 0,23.3 ± 2.5 grams
same,mean weekly weight ± S.D.,[2]; week 1,18 ± 1.5 grams
same,mean weekly weight ± S.D.,[2]; week 2,17.1 ± 1.6 grams
same,Blood Glucose Levels,"[3]; 0.2% of diet, week 0, listed as Cpd 16",216 ± 61 mg/deciliter
same,Blood Glucose Levels,"[3]; 0.2% of diet, week 0, listed as Cpd. 16",244 ± 32 mg/deciliter
same,Blood Glucose Levels,"[3]; 0.2% of diet, week 1, listed as Cpd 16",135 ± 15 mg/deciliter
same,Blood Glucose Levels,"[3]; 0.2% of diet, week 1, listed as Cpd. 16",143 ± 21 mg/deciliter
same,Blood Glucose Levels,"[3]; 0.2% of diet, week 2, listed as Cpd 16",118 ± 12 mg/deciliter
same,Blood Glucose Levels,"[3]; 0.2% of diet, week 2, listed as Cpd. 16",134 ± 13 mg/deciliter
same,Blood Glucose Levels,"[3]; 0.2% of diet, week 3",102 ± 8 mg/deciliter
same,Blood Glucose Levels,"[3]; 0.2% of diet, week 4",105 ± 5 mg/deciliter
same,Blood Glucose Levels,"[3]; after 0.2% of diet, 24 hrs. on control diet",147 ± 10 mg/deciliter
same,Blood Glucose Levels,"[3]; after 0.2% of diet, 48 hrs. on control diet",262 ± 23 mg/deciliter
same,blood glucose lowering compared with DHEA (in words),[3],more effective in lowering blood glucose concentration
same,blood glucose lowering compared with DHEA (in words),[3]; listed as compound 16,significantly more slowly in the mice that had received compound 16
same,Mean Uterine Weight,[4]; 200 mg/kg oral,189 ± 14 Mgs
same,Mean Uterine Weight,[4]; 400 mg/kg oral,174 ± 20 Mgs
same,estrogenic activity (in words),[4],Neither compounds 16 nor 2 are estrogenic; also recorded: devoid of estrogenic activity in the rat uterotrophic test
same,estrogenic activity (in words),[4]; listed as compound 16,without any apparent estrogenic effect
same,Mean Uterine Weight ± S.D.,[5]; 60 mg/kg s.c.,126 ± 87 mg/100 gm body weight
same,Mean Uterine Weight ± S.D.,[5]; 120 mg/kg s.c.,111 ± 27 mg/100 gm body weight
same,"estrogenic / anti-estrogenic effect, uterine weight (in words)",[5]; 60 mg/kg,reduction in uterine weight; also recorded: apparently acts as an anti-estrogen
same,"estrogenic / anti-estrogenic effect, uterine weight (in words)","[5]; listed as cmpd. 16, 60 mg/kg",significantly greater than that of the cmpd. 21 treated rats; also recorded: highly significant anti-estrogenic activity
same,Mean Seminal Vesicle plus Prostate Weight ± S.D.,"[6]; 0.09% of diet, n = 6",4.0 ± 0.7 mg/100 gm body weight
same,Mean Seminal Vesicle plus Prostate Weight ± S.D.,"[6]; 0.18% of diet, n = 6",3.4 ± 0.11 mg/100 gm body weight
same,Mean Seminal Vesicle plus Prostate Weight ± S.D.,"[6]; 0.36% of diet, n = 5",3.0 ± 0.3 mg/100 gm body weight
same,"androgenic / anti-androgenic effect, seminal vesicle plus prostate weight (in words)",[6],significantly reduced the weight of the seminal vesicles and prostate glands; also recorded: significantly reduced the seminal vesicle plus prostate gland weight
same,"androgenic / anti-androgenic effect, seminal vesicle plus prostate weight (in words)",[6]; listed as Cmpd. 16,significantly reduced seminal vesicle plus prostate weight
"C[C@]12CC[C@H](O)CC1=CC[C@@H]1[C@@H]2CC[C@]2(C)C(=O)CC[C@@H]12 [DHEA, 3β-Hydroxy-5-androst-en-17-one, reference compound]",inhibition at 0.1 µM,[1],12%
same,Percent Inhibition (G6PDH),[1]; Conc. 1 μm,17%
same,inhibition at 1 µM,[1]; Conc. 1 μm,36%
same,Percent Inhibition (G6PDH),[1]; Conc. 10 μm,57%
same,Percent Inhibition (G6PDH),"[1]; Conc. 10 μm, listed as 1",53%
same,inhibition at 10 µM,[1]; Conc. 10 μm,51%
same,mean weekly weight,"[2]; 0.18% of diet, week 0",22.4 ± 1.8 grams
same,mean weekly weight,"[2]; 0.18% of diet, week 1",20.4 ± 1.9 grams
same,mean weekly weight,"[2]; 0.18% of diet, week 2",21.1 ± 0.5 grams
same,mean weekly weight,"[2]; 0.18% of diet, week 3",22.4 ± 0.8 grams
same,mean weekly weight,"[2]; 0.18% of diet, week 4",23.6 ± 1.5 grams
same,mean weekly weight,"[2]; 0.35% of diet, week 0",21.8 ± 2.2 grams and 22.4 ± 2.3 grams
same,mean weekly weight,"[2]; 0.35% of diet, week 1",20.0 ± 2.3 grams and 16.0 ± 1.6 grams
same,mean weekly weight,"[2]; 0.35% of diet, week 2",19.2 ± 1.8 grams and 20.2 ± 0.9 grams
same,mean weekly weight,"[2]; 0.35% of diet, week 3",19.6 ± 2.8 grams and 21.0 ± 0.8 grams
same,mean weekly weight,"[2]; 0.35% of diet, week 4",22.2 ± 2.4 grams and 22.2 ± 0.9 grams
same,mean weekly weight,"[2]; 0.35% of diet, week 5",21.8 ± 2.2 grams
same,mean weekly weight,"[2]; 0.35% of diet, week 7",23.2 ± 2.4 grams
same,mean weekly weight ± S.D.,[2]; week 0,23.2 ± 1.3 grams
same,mean weekly weight ± S.D.,[2]; week 1,21.8 ± 1.0 grams
same,mean weekly weight ± S.D.,[2]; week 2,20.8 ± 1.0 grams
same,anti-weight effect (in words),"[2]; 400 mg/kg repeated (DHEA), cancer preventive dosages (19, 20)",produces an anti-weight effect
same,weekly weight (Table 13),[2]; week 0,21.2 ± 1.4
same,weekly weight (Table 13),[2]; week 1,16.8 ± 1.6
same,weekly weight (Table 13),[2]; week 2,16.7 ± 2.0
same,weekly weight (Table 13),[2]; week 3,18.8 ± 1.1
same,weekly weight (Table 13),[2]; week 4,19.0 ± 2.0
same,weekly weight (Table 13),[2]; week 5,19.6 ± 2.8
same,mean weekly weight,"[2]; 0.7% of diet, week 0",21.1 ± 2.8 grams and 22.0 ± 2.5 grams
same,mean weekly weight,"[2]; 0.7% of diet, week 1",15.2 ± 1.8 grams and 17.0 ± 1.9 grams
same,mean weekly weight,"[2]; 0.7% of diet, week 2",17.0 ± 2.0 grams and 17.8 ± 1.8 grams
same,mean weekly weight,"[2]; 0.7% of diet, week 3",17.8 ± 1.1 grams and 18.4 ± 1.8 grams
same,mean weekly weight,"[2]; 0.7% of diet, week 4",18.8 ± 1.1 grams and 19.2 ± 1.6 grams
same,mean weekly weight,"[2]; 0.7% of diet, week 5",18.2 ± 1.3 grams and 20.2 ± 1.9 grams
same,mean weekly weight,"[2]; 0.7% of diet, week 6",19.8 ± 2.0 grams
same,Anti-obesity Activity relative to DHEA,"[2]; Table 14, DHEA = 1×",1 ×
same,Blood Glucose Levels,"[3]; 0.4% of diet, week 0",214 ± 59 mg/deciliter and 232 ± 28 mg/deciliter
same,Blood Glucose Levels,"[3]; 0.4% of diet, week 1",161 ± 19 mg/deciliter and 132 ± 14 mg/deciliter
same,Blood Glucose Levels,"[3]; 0.4% of diet, week 2",145 ± 19 mg/deciliter and 135 ± 37 mg/deciliter
same,Blood Glucose Levels,"[3]; 0.4% of diet, week 3",117 ± 12 mg/deciliter
same,Blood Glucose Levels,"[3]; 0.4% of diet, week 4",112 ± 4 mg/deciliter
same,Anti-diabetic Activity relative to DHEA,"[3]; Table 15, DHEA = 1×",1 ×
same,Blood Glucose Levels,"[3]; after 0.4% of diet, 24 hrs. on control diet",192 ± 32 mg/deciliter
same,Blood Glucose Levels,"[3]; after 0.4% of diet, 48 hrs. on control diet",310 ± 37 mg/deciliter
same,Mean Uterine Weight,[4]; 400 mg/kg oral,261 ± 23 Mgs
same,estrogenic activity (in words),[4],significantly estrogenic
same,Mean Uterine Weight ± S.D.,[5]; 60 mg/kg s.c.,222 ± 77 mg/100 gm body weight
same,Mean Seminal Vesicle plus Prostate Weight ± S.D.,"[6]; 0.36% of diet, n = 5",6.5 ± 1.2 mg/100 gm body weight
same,"androgenic / anti-androgenic effect, seminal vesicle plus prostate weight (in words)",[6],significantly reduced seminal vesical plus prostate gland weight
